The source of these data is patent US20100291012A1, “ADMINISTRATION OF AMOROLFINE BY IONTOPHORESIS FOR TREATING NAIL DISEASES” (GALDERMA S.A., priority 2008, published 2010).

The format of this data set is in vitro ADME. The note with it: for Nail (summary) / Receptor (summary) / Total nail (summary): 10 mM. The method, then:
The donor solution in experiment 2 consisted of: 0.36% (10 mM) amorolfine HCl in an aqueous solution containing 50 mM NaCl and 0.4% Tween 80. The experiment was performed at pH 3.9 without further adjustment.
The donor solution in experiment 3 consisted of: 0.36% (10 mM) amorolfine HCl in an 40:60 (w:w) Tris buffer:ethanol. The Tris buffer contained 50 mM Tris and 50 mM NaCl at pH 7.4. The pH of the buffer:ethanol solution was ˜7.5. After addition of the drug the pH was ˜5.5.
The donor solution in experiments 4 and 5 consisted of: 1% (28 mM) amorolfine HCl in an 40:60 (w:w) Tris buffer:ethanol. The Tris buffer contained 50 mM Tris and 50 mM NaCl at pH 7.4. The pH of the buffer:ethanol solution was ˜7.5. After addition of the drug the pH was ˜4.7.
Receptor solution: pH 7.4 PBS containing 0.25% Tween 80 (same as Expt. 2).
Diffusion cells: 15 mm diameter Franz diffusion cells were used. The “nail assemblage” was placed in […] the donor and receptor chambers.
Nail device: A nail was glued […] two silicone rings with an internal orifice of 5 mm diameter.
The thickness of the nails was measured with a micrometer. Before hydration nail thickness in the periphery was measured in three places. The central part was not measured at this time to avoid any risk of breaking the nail. The nails were soaked overnight in 50 mM NaCl solution. Because of the increased flexibility of the nail after soaking, it was then possible to measure the thickness in the central part, upper part and lateral corner of the nail (Table 1):
Testing for leaks and iontophoretic circuit: Before starting the iontophoretic experiment, the absence of leaks was tested for each cell. The donor and receptor chambers were filled with donor (without drug) and receptor buffer, respectively, and a 0.1 mA current was passed. In the presence of leaks, the resistance of the circuit is low and the voltage needed to drive the current is very small (˜1V).
The voltages observed at the start of current passage decreased rapidly to settle at (˜30V after approximately 20 minutes.
Once the stability of the circuit with the three cells was assured, the donor compartment was filled with the drug solution and the current re-started.
The intensity of current was 0.1 mA, equivalent to 0.51 mA/cm^2 (area exposed=0.196 cm^2).
One sample was taken after 18 hours of iontophoresis for experiment 2 and 20 hours for experiments 3 and 4. The receptor was then refilled and a passive post-iontophoretic period of 4 hours elapsed before a second sample was obtained.
After recovery of the donor solution, the anode chamber was rinsed twice with ethanol to clean residual solution from the surface of the nail. Then, the nail was cut out of the silicone ring, weighed, dissolved in Soluene®, and assayed for radioactivity.
Experiment 5 is a passive control.

The structures appear in SMILES notation. Where two headings read alike, the source gives them in different places.

Consider `CCC(C)(C)c1ccc(CC(C)CN2C[C@@H](C)O[C@@H](C)C2)cc1` (stereo partly drawn) [Amorolfine, cis-4-[3-[4-(1,1-dimethylpropyl)phenyl]-2-methylpropyl]-2,6-dimethylmorpholine], for which the “effect of iontophoresis on drug delivery into and through the nail” value was “enhances drug delivery into and trough the nail”; the “flux of amorolfine, comparison of experiments” value was “higher flux”. Moreover, for the setting “18 h, pH 3.9”, the “Nail (summary)” value is reported as 5.1 ± 4.3 nmol/mg, the “Receptor (summary)” value amounted to 2.4 ± 0.5 nmol and the “Total nail (summary)” value is recorded as 38 ± 13 nmol. Further, for the setting “20 h”, the “Nail (summary)” value was determined as 3.2 ± 0.6 nmol/mg, the “Receptor (summary)” value turned out to be 1.7 ± 0.7 nmol and the “Total nail (summary)” value is listed as 28 ± 3.6 nmol.
